The values below are quoted from earlier work in patent CN101444491A, “奥扎格雷钠微球冻干制剂及其制备方法” (HAINAN SHU ER PHARMACEUTICAL RESEARCH Co Ltd, priority 2008, dated 2009).

The conditions of data set [1]: after conversion into sodium salt (JP2001316265).

Take `O=C(O)/C=C/c1ccc(Cn2ccnc2)cc1` [奥扎格雷]: the solubility in water result is “溶解度较小”. For the compound `O=C(O)/C=C/c1ccc(Cn2ccnc2)cc1` [奥扎格雷钠, 钠盐], in data set [1], the “stability in aqueous solution” value is “稳定性下降”.
